Measurements taken from patent US20220334101A1, “MODULATING EXTRACELLULAR MATRIX MOVEMENT” (Helmholtz Zentrum Muenchen - Deutsches Forschungszentrum …, priority 2019, published 2022).
Structures can show the parent of a compound that is named as a salt.

system: skin-fascia explants; test: Scar-in-a-dish (SCAD) ex vivo skin-fascia explant assay, screening of Prestwick chemical library; assay type: cell-based, mouse; details: molecules of table 1 named as inhibitors of ECM movement
Description: Post born Day 0 (P0) neonates of C57BL/6J wild type mouse were first sacrificed by decapitation. Then dorsal back skin was isolated to make 2 mm full thickness biopsies (0 2 mm, Stiefel) that included the epidermis, dermis and deep subcutaneous fascia layers. The whole skin tissue explant system is termed as scar-in-a-dish (SCAD) assay (Patent Application no. PLA17A13). The SCAD tissue was maintained in DMEM/F12 cell culture medium (Life Technologies) supplemented with 10% FBS (Life Technologies), 1% non-essential amino acid (Thermo Fisher), 1% Glutamax (Thermo Fisher), 1% penicillin and streptomycin (Thermo Fisher) in a 37° C. incubator supplied with […] and 5% CO2. Medium was changed every other day until day 5 when SCADs were collected and fixed for histology analysis. To be noticed, the excised skin was submerged […] in culture media, which confined the scar-prone fibroblasts to the explant and discouraged their adherence to the tissue culture plate.
The PCL provides an additional advantage as all chemicals are of stable physicochemical properties, show a high range of chemical diversity, and are with known bioavailability and safety data in humans. All these information helps to reduce the probability of screening low-quality hits and save the costs of preliminary screening process.
In order to accommodate to medium scale screening approach, the Inventors adapted the SCAD explant system into 96-well plate (Falcon) formats, with each well contained one biopsy. […] Plate and liquid handling were performed using a high-throughput screening platform system composed of a Sciclone G3 Liquid Handler from PerkinElmer (Waltham, Mass., USA). On Day 0 tissues were treated either with the respective compound (1 mM stock solution) dissolved in 100% dimethyl sulfoxide (DMSO, Carl Roth) or DMSO alone. 0.5 μl of compounds/DMSO were transferred with a 96-array head to 200 μl DMEM/F12 medium per well to keep the final DMSO concentrations at […]. Tissues were then incubated (37° C.; 5% CO2) for 72 h prior to a second round of compound treatment, which was performed by exchanging cell culture medium per well and transferring […] of compounds/DMSO into the fresh medium. After an incubation time of another 48 h (37° C.; 5% CO2) the tissues were harvested and fixed for histological processing and imaging.
Briefly, the Inventors excised 2-mm full thickness skin biopsies that included epidermis, dermis, and deep subcutaneous fascia layers from mouse backs (see Methods). Skin-fascia explants were submerged fascia-side up in culture media, to confine scar-prone fibroblasts to the explant and discourage their adherence to the tissue culture plate.
The Prestwick library has selected a diverse array of chemicals with strong physicochemical properties, with known bioavailability and clinical safety data. The library is an ideal place to start screening as it covers all major therapeutic chemical classes such as central nervous system, cardiovascular system, metabolism, and infectious diseases.

Row | SMILES | phenotype as inhibitor of ECM movement
1 | [H]/N=C(/NCCCCC)N/N=C/c1c[nH]c2ccc(OC)cc12 [Tegaserod maleate] | anti-fibrotic phenotype
2 | C[C@@H]1C[C@H]2[C@@H]3C[C@H](F)C4=CC(=O)C=C[C@]4(C)[C@@]3(F)[C@@H](O)C[C@]2(C)[C@@]1(O)C(=O)COC(=O)C(C)(C)C [Flumethasone pivalate] | anti-fibrotic phenotype
3 | CCN1CCN(C(=O)N[C@@H](C(=O)N[C@@H]2C(=O)N3[C@@H]2SC(C)(C)[C@@H]3C(=O)O)c2ccccc2)C(=O)C1=O [Piperacillin sodium salt] | anti-fibrotic phenotype
4 | CCC(=O)O[C@]1(C(=O)SCF)[C@H](C)C[C@H]2[C@@H]3C[C@H](F)C4=CC(=O)C=C[C@]4(C)[C@@]3(F)[C@@H](O)C[C@@]21C [Fluticasone propionate] | anti-fibrotic phenotype
5 | Nc1ccc(S(=O)(=O)Nc2cnc3ccccc3n2)cc1 [Sulfaquinoxaline sodium salt] | anti-fibrotic phenotype
6 | C[N+](C)(CCOc1ccccc1)Cc1ccccc1.O=C([O-])c1cc2ccccc2cc1O [Bephenium hydroxynaphthoate] | anti-fibrotic phenotype
7 | O=c1[nH]c2ccccc2n1CCCN1CCC(n2c(=O)[nH]c3cc(Cl)ccc32)CC1 [Domperidone] | anti-fibrotic phenotype
8 | CC(=O)N(CC(O)CN(C(C)=O)c1c(I)c(C(=O)NCC(O)CO)c(I)c(C(=O)NCC(O)CO)c1I)c1c(I)c(C(=O)NCC(O)CO)c(I)c(C(=O)NCC(O)CO)c1I (stereo not shown) [Iodixanol, lodixanol] | anti-fibrotic phenotype
9 | CC[C@]12CCCN3CCc4c(n(c5ccccc45)C(=O)C1)[C@@H]32 [Eburnamonine (−)] | anti-fibrotic phenotype
10 | CN1CCCC(n2nc(Cc3ccc(Cl)cc3)c3ccccc3c2=O)CC1 (stereo not shown) [Azelastine HCl] | anti-fibrotic phenotype
11 | CCOc1cc(CC(=O)N[C@@H](CC(C)C)c2ccccc2N2CCCCC2)ccc1C(=O)O [Repaglinide] | anti-fibrotic phenotype
12 | CC(C)(C)C(=O)OCOC(=O)[C@@H]1N2C(=O)[C@@H](NC(=O)[C@H](N)c3ccccc3)[C@H]2SC1(C)C [Pivampicillin] | anti-fibrotic phenotype
13 | CC1(C)S[C@@H]2[C@H](NC(=O)Cc3ccccc3)C(=O)N2[C@H]1C(=O)O.CC1(C)S[C@@H]2[C@H](NC(=O)Cc3ccccc3)C(=O)N2[C@H]1C(=O)O.c1ccc(CNCCNCc2ccccc2)cc1 [Benzathine benzylpenicillin] | anti-fibrotic phenotype
14 | COc1ccc(NS(=O)(=O)c2ccc(N)cc2)nn1 [Sulfamethoxypyridazine] | anti-fibrotic phenotype
15 | C[C@H]1NC(=O)NC1=O [Methylhydantoin-5-(D)] | anti-fibrotic phenotype
16 | CC(C)/N=c1\cc2n(-c3ccc(Cl)cc3)c3ccccc3nc-2cc1Nc1ccc(Cl)cc1 [Clofazimine] | anti-fibrotic phenotype
17 | CCN1CC(CCN2CCOCC2)C(c2ccccc2)(c2ccccc2)C1=O (stereo not shown) [Doxapram hydrochloride] | anti-fibrotic phenotype
18 | CN1CCOC(c2ccccc2)c2ccccc2C1 (stereo not shown) [Nefopam hydrochloride] | anti-fibrotic phenotype
19 | O=C1CC[C@@]2(O)[C@H]3Cc4ccc(O)c5c4[C@@]2(CCN3CC2CC2)[C@H]1O5 [Naltrexone hydrochloride dehydrate, Naltrexone hydrochloride dihydrate] | anti-fibrotic phenotype

Row | SMILES | phenotype as inhibitor of ECM movement
20 | NC(N)=Nc1nc(CSCCC(N)=NS(N)(=O)=O)cs1 [Famotidine] | anti-fibrotic phenotype
21 | Clc1cc(Cl)c(OCC#CI)cc1Cl [Haloprogin] | anti-fibrotic phenotype
22 | CCCCN(CCCC)CCC(O)c1cc2c(Cl)cc(Cl)cc2c2cc(C(F)(F)F)ccc12 (stereo not shown) [Halofantrine hydrochloride] | anti-fibrotic phenotype
23 | CC[C@H](C)C(=O)O[C@H]1CCC=C2C=C[C@H](C)[C@H](CC[C@@H]3C[C@@H](O)CC(=O)O3)[C@H]21 [Mevastatin] | anti-fibrotic phenotype
24 | CC1(C)O[C@@H]2C[C@H]3[C@@H]4C[C@H](F)C5=CC(=O)C=C[C@]5(C)[C@@]4(F)[C@@H](O)C[C@]3(C)[C@]2(C(=O)CO)O1 [Fluocinolone acetonide] | anti-fibrotic phenotype
25 | C[C@H](N)[C@H](O)c1ccc(O)c(O)c1 [Levonordefrin] | anti-fibrotic phenotype
26 | NC(=O)c1cnccn1 [Pyrazinamide] | anti-fibrotic phenotype
27 | O=C(c1ccccc1)c1ccc2n1CCC2C(=O)O (stereo not shown) [Ketorolac tromethamine] | anti-fibrotic phenotype
28 | C#C[C@]1(O)CC[C@H]2[C@@H]3CCC4=C(CCC(=O)C4)[C@H]3CC[C@@]21C [Norethynodrel] | anti-fibrotic phenotype
29 | COc1cccc2c1C(=O)c1c(O)c3c(c(O)c1C2=O)C[C@@](O)(C(=O)CO)C[C@@H]3O[C@H]1C[C@H](N)[C@H](O)[C@H](C)O1 [Doxorubicin hydrochloride] | anti-fibrotic phenotype
30 | CC(O)(P(=O)(O)O)P(=O)(O)O [Etidronic acid, disodium salt] | anti-fibrotic phenotype
31 | C=C1/C(=C\C=C2/CCC[C@]3(C)[C@@H]([C@H](C)CCCC(C)C)CC[C@@H]23)C[C@@H](O)C[C@@H]1O [Alfacalcidol] | anti-fibrotic phenotype
32 | Nc1ccc(S(=O)(=O)Nc2ccnn2-c2ccccc2)cc1 [Sulfaphenazole] | anti-fibrotic phenotype
33 | CC(C)N(CCC(C(N)=O)(c1ccccc1)c1ccccn1)C(C)C (stereo not shown) [Disopyramide] | anti-fibrotic phenotype
34 | CC(=O)[C@H]1CC[C@H]2[C@@H]3C[C@H](C)C4=CC(=O)CC[C@]4(C)[C@H]3[C@@H](O)C[C@]12C [Medrysone] | anti-fibrotic phenotype
35 | CCN(CC)CCc1nc(-c2ccccc2)no1.O=C(O)CC(O)(CC(=O)O)C(=O)O [Oxalamine citrate salt] | anti-fibrotic phenotype
36 | CCC(C)(C)c1ccc(CC(C)CN2C[C@@H](C)O[C@@H](C)C2)cc1 (stereo partly shown) [Amorolfine hydrochloride] | anti-fibrotic phenotype
37 | CCCOc1cc(N)ccc1C(=O)OCCN(CC)CC [Propoxycaine hydrochloride] | anti-fibrotic phenotype
38 | COc1ccc2c(c1)N(C[C@H](C)CN(C)C)c1ccccc1S2.O=C(O)/C=C\C(=O)O [Methotrimeprazine maleat salt] | anti-fibrotic phenotype

system: liver; test: ECM (matrix) movement into liver wounds after electroporation injury, NHS-FITC matrix labelling; assay type: in vivo, mouse; details: filter paper with 100 nM solution on liver surface for 5 minutes, absence of wounds

Row | SMILES | recruitment / deposition of fluid matrix after local application
39 | CCCCC[C@H](O)/C=C/C=C\C=C\C=C\[C@@H](O)[C@@H](O)CCCC(=O)O [Lipoxin A4] | led to recruitment of fluid matrix
40 | CCCCC/C=C\C[C@@H](O)/C=C/C=C/C=C\[C@@H](O)CCCC(=O)O [LTB4] | forms new deposits of matrix

same assay, conditions: filter paper with 100 nM solution on liver surface for 5 minutes, absence of wounds; listed as Lipoxin

Row | SMILES | recruitment / deposition of fluid matrix after local application
41 | CCCCC[C@H](O)/C=C/C=C\C=C\C=C\[C@@H](O)[C@@H](O)CCCC(=O)O [Lipoxin A4] | can be directed with local application

system: peritoneum; test: ECM (matrix) movement into peritoneal wounds after laparotomy injury, NHS-FITC matrix labelling; assay type: in vivo, mouse; details: inhibitors 10 μM i.p. 2 hours before surgery, organs harvested after 24 h, FITC in wound lysates

Row | SMILES | ECM (matrix) movement, peritoneum
42 | O=C1c2ccc([N+](=O)[O-])cc2N=C2N(c3ccccc3)CC[C@@]12O [(S)-nitro-Blebbistatin] | decreased

same assay, conditions: livers and peritoneas compared

Row | SMILES | organ specificity of the effect on matrix currents
43 | O=C1c2ccc([N+](=O)[O-])cc2N=C2N(c3ccccc3)CC[C@@]12O [(S)-nitro-Blebbistatin] | effected matrix currents of only one organ
